Assay results as given in patent EP4696306A1, “ADENOSINE TRIPHOSPHATE SECRETION INHIBITOR, HEPATIC STELLATE CELL ACTIVATION INHIBITOR, HEPATIC STELLATE CELL DEACTIVATOR, HEPATIC FIBROSIS THERAPEUTIC AGENT, NON-ALCOHOLIC STEATOHEPATITIS THERAPEUTIC AGENT, PSORIASIS THERAPEUTIC AGENT, AND USE OF COMPOUND FOR PRODUCING ADENOSINE TRIPHOSPHATE …” (KURUME UNIVERSITY, priority 2023, dated 2024).

System: catecholamine transport
Experiment: Catecholamine (3H-dopamine) transport in chromaffin granule membranes
Type: biochemical, bovine
Conditions: 1 µM reserpine
Protocol: (§1) Chromaffin granule membranes were prepared from adrenal glands collected from slaughtered cattle according to Reference A (Nathan Nelson et al., 1988, Chromaffin Granule Proton Pump, Methods in Enzymology, 157, 619-633). Chromaffin granule membranes prepared by sucrose density gradient centrifugation were suspended in 2 ml of SME buffer (20 mM MOPS-tris (pH 7.0), 0.3 M sucrose, 5 mM EDTA, 10 µg/ml leupeptin, and 10 µg/ml pepstatin) + 25% glycerol, and the resulting suspension was aliquoted and stored at -80°C. Under these conditions, the ATP transport activity, the V-ATPase activity, and the catecholamine transport activity remain fully active for at least one year.
A catecholamine transport inhibition experiment was carried out in the same manner as the ATP transport experiment except that the experiment used a measurement liquid containing 20 mM MOPS-tris (pH 7.0), 0.1 M sucrose, 0.1 M potassium chloride, 5 mM magnesium acetate, and about 5 µg of chromaffin granule membranes. To 0.5 ml of the measurement liquid, 2 mM ATP was added, and the resulting mixture was incubated at 30°C for about 5 minutes, followed by addition of^3 [H]-dopamine thereto to a final concentration of 10 µM. After further incubation at 30°C for 15 minutes, 0.2 ml of the reaction liquid was subjected to suction filtration through a Millipore MCE membrane filter with a pore size of 0.45 µm, and the radioactivity on the filter was measured (N = 3). The substrate, ^3[H]-dopamine, was prepared by mixing 3,4-[RING-2,5,6-^3H]dihydroxyphenylethylamine (dopamine) (30 Ci/mmol) (manufactured by New England Nuclear) with dopamine hydrochloride (manufactured by LKT Laboratories) such that a final concentration of 0.1 mM was achieved during the use.
(§2) Chromaffin granule membrane vesicles were prepared in the same manner as in Example 5, and uptake of radiolabeled ATP into the vesicles was measured. Transport activity of catecholamine (dopamine) and ATP-dependent proton transport by V-ATPase were also measured in the same manner as in Example 5.

Compound	ATP-dependent dopamine transport
COC(=O)[C@H]1[C@H]2C[C@@H]3c4[nH]c5cc(OC)ccc5c4CCN3C[C@H]2C[C@@H](OC(=O)c2cc(OC)c(OC)c(OC)c2)[C@@H]1OC [reserpine]	almost completely blocked

Molecular target: T1, human VNUT (Homo sapiens, UniProt Q9BYT1)
T1 construct: made in house; host or cells: HIGH FIVE insect cells (baculovirus)
T1 sequence (Q9BYT1 1-430 isoform Q9BYT1-2): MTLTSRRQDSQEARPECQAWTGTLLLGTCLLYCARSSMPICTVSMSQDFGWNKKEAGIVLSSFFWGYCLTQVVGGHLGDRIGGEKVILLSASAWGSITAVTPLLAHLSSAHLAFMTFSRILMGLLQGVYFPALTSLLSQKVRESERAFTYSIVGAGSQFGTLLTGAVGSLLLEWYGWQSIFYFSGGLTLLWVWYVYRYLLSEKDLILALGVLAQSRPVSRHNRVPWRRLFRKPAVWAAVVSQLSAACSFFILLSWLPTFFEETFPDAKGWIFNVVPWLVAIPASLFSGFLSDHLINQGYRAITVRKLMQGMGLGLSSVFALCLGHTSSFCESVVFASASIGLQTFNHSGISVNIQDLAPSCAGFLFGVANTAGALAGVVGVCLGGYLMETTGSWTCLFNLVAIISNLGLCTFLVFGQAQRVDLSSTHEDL
Experiment: ATP loading into reconstituted liposomes containing human VNUT
Type: biochemical
Conditions: pyruvic acid at a 50-fold higher concentration (5 mM)
Protocol: Human VNUT was prepared according to Reference C (Keisuke Sawada et al., 2008, Identification of a vesicular nucleotide transporter, Proc Natl Acad Sci USA, vol. 105, no. 15, 5683-5686). Insect cells (HIGH FIVE cells) were infected at MOI = 1 with a baculovirus in which a human VNUT expression system was incorporated. HIGH FIVE cells expressing VNUT (1 × 10^8 cells) were collected with a cell scraper, and suspended at about 8 mg/ml in 20 mM Tris-HCl (pH 8.0), 0.1 M potassium acetate, 10% glycerol, 10 µg/ml pepstatin A, and 10 µg/ml leupeptin, followed by homogenization of the cells using an ultrasonic generator (manufactured by Sonics Materials). […]
VNUT (protein, 20 µg) prepared by the above method was mixed with liposomes (lipid weight, 200 µg), and left to stand at -80°C for 30 minutes. […] A major band was detected at a position of about 68 kDa. The proteins after the electrophoresis with the ePAGEL E-T520 2-10% gradient gel (manufactured by Atto) were electrotransferred to a nitrocellulose sheet, and analyzed by Western blotting using an anti-human SLC17A9 (VNUT) rabbit polyclonal antibody (manufactured by Proteintech).
The ATP transport activity of the VNUT-containing reconstituted liposomes prepared by the above method was measured. […]

Compound	ATP loading into liposomes
CC(=O)C(=O)O [pyruvic acid]	did not inhibit ATP loading into liposomes

System: ATP transport activity in isolated chromaffin granule membranes
Experiment: ATP transport (3H-ATP uptake) in chromaffin granule membrane vesicles
Type: biochemical, bovine
Conditions: PEP analogs
Protocol: as §1
An ATP transport inhibition experiment for the chromaffin granule membrane was carried out according to Reference B (Yoshinori Moriyama et al., 2022, Is the vesicular nucleotide transporter a molecular target of eicosapentaenoic acid?, Frontiers in Pharmacology, 103389). About 20 µg of chromaffin granule membranes were added to 0.5 ml of measurement buffer (20 mM MOPS-tris (pH 7.0), 0.3 M sucrose, 5 mM potassium chloride, 5 mM magnesium acetate, 5 mM creatine phosphate, 10 units of creatine kinase, and 1 mM ^3[H]-ATP [15 KBq/assay]), followed by incubation at 30°C for 1 hour. Through a Millipore MCE membrane filter with a pore size 0.45 µm, 0.2 ml of the reaction liquid was filtered by suction. Thereafter, the filter was washed with 10 ml of 20 mM MOPS-tris (pH 7.0), 0.3 M sucrose, 5 mM potassium chloride, and 5 mM magnesium acetate, and dissolved in 10 ml of Clear-sol II (manufactured by Nacalai Tesque, Inc.). The radioactivity was then measured using a liquid scintillation counter (N = 3).
The reaction was initiated by adding 50 mM ^3[H]-ATP to a final concentration of 1 mM. The 50 mM ^3[H]-ATP was prepared by mixing an ATP-tris solution (manufactured by Sigma-Aldrich) with [2,8-^3H] adenosine triphosphate tetrasodium salt (26.0 Ci/mmol) (manufactured by New England Nuclear). PEP was used as a test reagent, and pyruvic acid was used as a negative control. Five minutes before the addition of ATP, PEP or pyruvic acid, as a solution in 20 mM MOPS-tris (pH 7.0), 0.3 M sucrose, 5 mM potassium chloride, and 5 mM magnesium acetate, was added to the measurement liquid to a final PEP concentration of 0.02, 0.05, 0.1, 0.2, 0.4, or 1 mM, or to a final pyruvic acid concentration of 0.5 or 1 mM.
as §2

Compound	IC50
O=C(O)C(O)COP(=O)(O)O (stereo not drawn) [3-phosphoglyceric acid]	450 µM
O=C(O)[C@@H](CO)OP(=O)(O)O [D-2-phosphoglyceric acid]	180 µM
O=C(O)[C@H](CO)OP(=O)(O)O [L-2-phosphoglyceric acid]	180 µM

Same assay, conditions: concentration not given

Compound	inhibitory activity on ATP transport
C[C@H](O)C(=O)O [L-lactic acid]	no inhibitory activity
NC(=O)c1ccc[n+]([C@@H]2O[C@H](COP(=O)([O-])OP(=O)(O)OC[C@H]3O[C@@H](n4cnc5c(N)ncnc54)[C@H](O)[C@@H]3O)[C@@H](O)[C@H]2O)c1 [NAD+]	no inhibitory activity
CC(=O)SCCNC(=O)CCNC(=O)[C@H](O)C(C)(C)COP(=O)(O)OP(=O)(O)OC[C@H]1O[C@@H](n2cnc3c(N)ncnc32)[C@H](O)[C@@H]1OP(=O)(O)O [acetyl-CoA]	no inhibitory activity
O=C(O)CC(O)(CC(=O)O)C(=O)O [citric acid]	no inhibitory activity
O=C(CO)[C@@H](O)[C@H](O)[C@H](O)COP(=O)(O)O [fructose-6-phosphate]	no inhibitory activity
O=C[C@H](O)[C@@H](O)[C@H](O)[C@H](O)COP(=O)(O)O [glucose-6-phosphate]	no inhibitory activity
O=C(O)CC(O)C(=O)O (stereo not drawn) [malic acid]	no inhibitory activity
O=C(O)CC(=O)C(=O)O [oxaloacetic acid]	no inhibitory activity
CC(=O)C(=O)O [pyruvic acid]	no inhibitory activity

Same assay, conditions: concentrations of up to 1 mM

Compound	inhibition of ATP transport
CC(=O)C(=O)O [pyruvic acid]	did not inhibit ATP transport
